Experimental data as given in publication PMC8485325, “Penetrating the Blood-Brain Barrier with New Peptide–Porphyrin Conjugates Having anti-HIV Activity” (Bioconjugate Chemistry, 2021).
Like-named read-outs stand apart in the source and are kept apart here. Ends that are not written are not given here.

Legend:
[1] = Cell viability assay (CellTiter-Blue); assay type: cell-based, murine; conditions: for CC50 at 24 h: mouse
Description: (§1) bEnd.3 cells were plated in fibronectin precoated 96-well flat-bottom clear black polystyrene plate (Corning, New York, USA) as previously described. Cells were then cultured in complete medium at 37 °C in a 5% CO2 atmosphere, with medium replaced every 2 days. […] Viability was evaluated by the CellTiter-Blue assay (Promega, Wisconsin, USA), based on resazurin reduction into highly fluorescent resorufin by metabolically active cells. By distinguishing metabolic from nonmetabolic cells, cytotoxicity can be indirectly determined. After incubation, cells were washed with PBS, pH 7.4, and 15 μL of CellTiterBlue reagent in 100 μL of complete medium was added to the cells and incubated for 1.5 h at 37 °C in 5% CO2. Fluorescence was measured at 590 nm, with excitation at 560 nm, using an Infinite F200 plate reader (Tecan, Switzerland). Complete medium and medium containing 0.25% Triton X-100 were used as positive and negative controls (100% and 0% viability), respectively. Cell viability (%) was determined using the following equation: [drawing 5] 5 where […] is the fluorescence emission of conjugate-treated cells, Fnontreated is the fluorescence emission of the control nontreated cells, and Fblank is the fluorescent emission of CellTiter reagent in complete medium without cells.

[2] = test system: human erythrocytes; assay: Hemolysis assay; assay type: cell-based
Description: Plates were incubated for 1 h at 37 °C with 100 rpm stirring, then centrifuged for 5 min at 4000 rpm, 4 °C, and supernatants were transferred to a 96-well flat-bottom polystyrene plate (Corning). Hemolysis was assessed by hemoglobin (Hb) release, measured by absorbance at 415 nm in a Varioskan LUXTM microplate reader (Thermo Fisher Scientific, Inc.). As porphyrin and Hb spectra are partially overlapping, to exclude porphyrin interference in Hb quantification a blank reading of each PPC (no hRBCs, TN buffer +1% DMSO) was subtracted from each measurement. TN buffer (+1% DMSO, no conjugate) and hRBCs with 1% Triton X-100 were used as negative and positive controls, respectively. Hemolysis (%) was determined using the following equation: [drawing 6] 6 where Abstreated is the absorbance of hRBC treated with the conjugates, Absconjugate is the absorbance from each conjugate concentration without hRBCs, AbsTriton is the absorbance of Triton X-100 treated hRBCs, and Absbuffer is the absorbance of TN buffer alone. HC50 values were determined by GraphPad Prism 8 software using a log(inhibitor) vs normalized response (variable slope). Experiments were performed using 3 different blood donors.

[3] = test system: bEnd.3 cells; assay: Cell viability assay (CellTiter-Blue); assay type: cell-based, murine
Description: as §1

[4] = test system: bEnd.3 cell monolayers; assay: In vitro BBB translocation assay (bEnd.3 transwell model)
Source text: Assessment of PPC efficacy in BBB translocation was done in a transwell setup (Figure 4A) using bEnd.3 cell monolayers.[44] The bEnd.3 in vitro BBB model consists of a monolayer of cells expressing a range of essential BBB transporters, also bearing the low permeability characteristic of the BBB, suitable for this study.[44]−[46]
(§2) Figure 4 PPCs translocation across a bEnd.3 in vitro BBB model. (A) bEnd.3 in vitro BBB model transwell system. The insert, or apex, corresponds to the blood side, while the base (bottom chamber) corresponds to the brain side. (B) After formation of a monolayer, 10 μM of each conjugate was added to the apical side of the tissue culture inserts. After incubation for 24 h, samples from the basolateral side were collected, and the percentage of translocation of each conjugate (black) was calculated. FD4 permeability (gray) was measured to determine monolayer integrity post-PPCs translocation.
An in vitro BBB model consisting of endothelial cells growing on the apical side of a porous membrane was used.[46] bEnd.3 cells (ATTCC-CRL2299) were cultured as a monolayer on T-flasks in DMEM supplemented with 10% fetal bovine serum (FBS), 1% penicillin/streptomycin. Cells were grown in a humidified atmosphere of 5% CO2 at 37 °C (MCO-18AIC (UV), Sanyo, Japan) with the medium changed every other day. Cells were allowed to grow until confluence in a culture T-flask, and then carefully harvested with trypsin-EDTA and seeded (3500 cells/well) onto fibronectin-coated tissue culture 24-well inserts (transparent polyester membrane with 1.0 μm pores) (BD Falcon, USA). The medium was changed every other day for 10 days, after which cells were washed twice with 1× PBS and once with DMEM medium without phenol red. Next, conjugates diluted in DMEM without phenol red to a final concentration of 10 μM were added to the apical side of the in vitro BBB model (Figure 4A). Experiments were performed on different days using independently grown cell cultures.
The translocation of conjugates was determined by fluorescence intensity (λexc = 380 nm and λem = 625 nm for MP conjugates, and λexc = 380 nm and λem = 675 nm for PP conjugates). P3-CF and P5-CF, peptides labeled with 5(6)-Carboxyfluorescein (CF), were used as positive translocation controls (λexc = 492 nm and λem = 517 nm). After 24 h incubation, samples from the apical and basolateral side were collected and analyzed. Fluorescence was measured using a Varioskan Lux plate reader (Thermo Scientific, MA, USA). The percentage (%) of translocation was calculated using the following equation: [drawing 1] 1 where Fi is the recovered fluorescence intensity, Fcells is the recovered fluorescence intensity from cells without the conjugate, and Fconjugate is the fluorescence intensity of total peptide initially added to the transwell apical side.

[5] = test system: HIV-1NL4-3; assay: In vitro inhibition of HIV-1NL4-3 infection of TZM-bl cells (luciferase reporter); assay type: cell-based
Description: Viral supernatants harvested from pNL4-3-transfected HEK293T cells were titered through the Reed-Muench method[56] based on HIV-1NL4–3 infectivity against TZM-bl cell cultures. TZM-bl cells were seeded at 2 × 10^4 cells/well in tissue culture-treated 96-well microplates from Corning (Corning, NY, USA), and incubated for 24 h. Cells were then incubated with 2-fold serial dilutions of viral supernatants for 3 h, after which the supernatant was replaced with fresh complete medium. After 45 h, TZM-bl cell infection was quantified through luciferase reporter-gene expression levels, under the control of an HIV-1 TAT-dependent LTR promoter[57] using the Luc-Screen luciferase chemiluminescence detection system. Luminescence was measured in an Infinite M200 microplate reader from Tecan (Männedorf, Switzerland). […] Titration was performed with at least four replicates to allow accurate estimation of TCID50 in viral supernatants.
The inhibitory activity of conjugates on HIV-1NL4–3 entry into TZM-bl cells was evaluated as previously described.[58] TZM-bl cells were seeded at 2 × 10^4 cells/well in tissue culture-treated 96-well microplates and incubated for 24 h. HIV-1NL4–3 viral supernatants (100 or 10 TCID50/well) were then incubated for 1 h with 2-fold serial dilutions of either nonconjugated peptide and porphyrins or conjugates, after which the infection mixture was added to TZM-bl cells. Untreated cells (in the absence of peptide–porphyrin conjugate) were used as control. Virions were incubated with cells for 3 h, after which cells were washed to remove unbound virions and new medium was added. After 45 h, infection was quantified by the Luc-Screen chemiluminescence assay. Measurements were performed in an Infinite M200 microplate reader. […] At least three independent experiments were performed for each assay.

[6] = test system: bEnd.3 cell monolayers
Description: as §2
After 24 h incubation with conjugates, an in vitro integrity assay was performed.[19] Briefly, cells were washed twice with PBS and once with DMEM medium without phenol red. Then, previously diluted 4 kDa fluorescein isothiocyanate-dextran (FD4) (Sigma-Aldrich, Spain) in DMEM without phenol red to an absorbance of 0.1 was added to the apical side and incubated for 2 h. Samples were collected from the apical and basolateral side, and fluorescence intensity was measured with λext = 493 nm and λem = 520 nm, using a Varioskan Lux plate reader. The integrity of the barrier was determined as follows: [drawing 2] 2 where Fi is the recovered fluorescence intensity, Fcells is the recovered fluorescence intensity from cells without FD4 incubation, FFD4 is the fluorescence intensity of total FD4 initially added to the transwell apical side, and FMedium is the fluorescence intensity of DMEM medium without phenol red.

[7] = test system: TZM-bl cells; assay type: cell-based
Description: TZM-bl Cell Viability Studies
The cytotoxic effects of each PPC on TZM-bl cell cultures were assessed to ensure that HIV inhibition was a result of the compounds effect on the virus and not on the host cells used in the assay. A resazurin reduction fluorometric assay was performed. Resazurin, the active compound in alamarBlue®, is a blue dye that can be reduced to a pink fluorescent intermediate, resorufin, as a result of cell metabolic activity.6 TZM-bl cells were seeded at 2x10^4 cells/well in tissue culture-treated 96-well microplates and incubated for 24 h. Cells were then incubated with serial dilutions (2-fold) of single peptide and porphyrins, or PPC, for 3 h, after which the mixture was replaced with fresh complete medium. Untreated cells (in the absence of peptide-porphyrin combinations) were used as a control. After 42 h, media was replaced with alamarBlue® reagent and incubated for an additional 3 h. Resazurin reduction was quantified by resorufin fluorescent emission intensity, measured in an Infinite M200 microplate reader. Fluorescence emission intensity was collected at 590 nm, using a fixed λ exc of 560 nm. Excitation and emission slits were 9 and 20 nm, respectively. Cell viability was calculated through the following formalism: […]
where I EI corresponds to the resorufin fluorescence emission intensity in the presence of EIs or combination, I control to the fluorescence emission intensity in the absence of EIs and I background to the background fluorescence emission from the non-reduced […]
P5, P4-MP, MP-L-P3 and P4-L-M - are presented here.
TZM-bl cell viability on the concentration range tested.
(1 picture or pasted object on this page, not shown here)
Figure S7. PPCs cytotoxic effects against TZM-bl cells. A resazurin reduction fluorometric assay, dependent on the cell metabolic activity, was used. Cell viability, normalized to the control in the absence of PPC, was measured against three concentrations of each individual PPC: MP-P3 (black), MP-P5 (white), P4-MP (red), MP-L-P3 (blue) and P4-L-MP (green).

Compound: H-VQQLTKRFSL-NH2 [P1, reference compound]
- CC50 ([1]; 24 h, 6.25–50 μM range): > 50 µM
- HC50: 50% lytic concentration for human erythrocytes ([2]; 1 h at 37 °C, 0.1–50 μM range): >50 µM

Compound: P6-MP: mesoporphyrin IX coupled to the C-terminal Lys side chain of peptide P6 (SGTQEEYK-amide) (SGTQEEYK(mesoporphyrin IX)-NH2)
- CC50 ([3]; read-out: CC50: 50% cytotoxic concentration toward bEnd.3 cells, 24 h, 6.25–50 μM range): > 50 µM
- HC50: 50% lytic concentration for human erythrocytes ([2]; 1 h at 37 °C, 0.1–50 μM range): >50 µM

Compound: CCC1=C(C)c2cc3[nH]c(cc4nc(cc5[nH]c(cc1n2)c(C)c5CCC(=O)O)C(CCC(=O)O)=C4C)c(C)c3CC [MP, mesoporphyrin IX, reference compound]
- BBB translocation (in words) ([4]; bEnd.3 monolayer in vitro model): translocated the monolayer
- IC50 ([5]; Human immunodeficiency virus 1, 100 TCDI50 per well, TZM-bl cells, no-light, read-out: IC50 HIV inhibition, 100 TCDI50): > 50 µM
- CC50 at 24 h ([1]; bEnd.3 cells, 24 h, 6.25–50 μM range): > 50 µM
- HC50: 50% lytic concentration for human erythrocytes ([2]; 1 h at 37 °C, 0.1–50 μM range): >50 µM

Compound: H-AGILKRW-NH2 [P3, AGILKRW-amide, reference compound]
- CC50 ([1]; 24 h, 6.25–50 μM range): > 50 µM
- HC50: 50% lytic concentration for human erythrocytes ([2]; 1 h at 37 °C, 0.1–50 μM range): >50 µM

Compound: P4-PP: protoporphyrin IX coupled to the Lys side-chain NH2 group of peptide P4 (AGILKRWK-amide) (AGILKRWK-NH2; also: protoporphyrin IX on a Lys side chain, Lys not given here)
- % Base (RFI), FD4 Permeability (monolayer integrity post-translocation) [6]: 9.9%
- CC50 [3]: > 50 µM

Compound: PP-P3: protoporphyrin IX coupled to the N-terminal NH2 group of peptide P3 (AGILKRW-amide) ({protoporphyrin IX}-AGILKRW-NH2)
- % Base (RFI), FD4 Permeability (monolayer integrity post-translocation) [6]: 7.2%
- CC50 [3]: > 50 µM

Compound: H-SGTQEEY-NH2 [P5, SGTQEEY-amide, reference compound]
- CC50 [1]: > 50 µM
- HC50: 50% lytic concentration for human erythrocytes ([2]; red cells of human, 1 h): >50 µM

Compound: C=CC1=C(C)c2cc3[nH]c(cc4nc(cc5[nH]c(cc1n2)c(C)c5CCC(=O)O)C(CCC(=O)O)=C4C)c(C)c3C=C [PP, protoporphyrin IX, reference compound]
- BBB translocation (in words) [4]: translocated the monolayer
- % Base (RFI), Translocation ([4]; mouse, 24 h, 10 μM): 38.3%
- % Base (RFI), FD4 Permeability (monolayer integrity post-translocation) ([6]; mouse, 2 h, 10 μM): 8.7%
- IC50 ([5]; Human immunodeficiency virus 1, TZM-bl, read-out: IC50 HIV inhibition, 100 TCDI50): > 50 µM
- CC50 at 24 h [1]: > 50 µM
- HC50: 50% lytic concentration for human erythrocytes ([2]; human, 1 h, pH 7.4): >50 µM

Compound: O=C(O)CN(CCOCCOCCN(CC(=O)O)CC(=O)O)CC(=O)O [EGTA, reference compound]
- % Base (RFI), FD4 Permeability (monolayer integrity post-translocation) [6]: 26.8%

Compound: MP-P3: mesoporphyrin IX coupled to the N-terminal amino group of peptide P3 (AGILKRW-amide) ({mesoporphyrin IX}-AGILKRW-NH2)
- % Base (RFI), FD4 Permeability (monolayer integrity post-translocation) [6]: 10.2%
- IC50 ([5]; 10 TCDI50 per well (approximate physiological conditions of HIV brain infection), TZM-bl cells, read-out: IC50 HIV inhibition, 10 TCDI50): 1.38 ± 1.1 µM
- IC50 ([5]; 100 TCDI50 per well, TZM-bl cells, no-light, read-out: IC50 HIV inhibition, 100 TCDI50): 16.1 ± 1.3 µM
- CC50 [3]: 48.2 µM
- TZM-bl cell viability (in words) [7]: did not alter significantly
